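Step 1: Grow cells in 96-well plates. Step 2: Expose to compound for 48 hours at 5 concentrations. Step 3: Interpolate endpoints linearly; if unreached, use highest concentration. The concentration for 50% growth inhibition is given as GI50. TGI: concentration producing complete growth inhibition.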
Legend:
Assay in all cases: inhibition of tumour cell growth, NCI panel, 48 h
[1] = tested on: CAKI-1 renal
[2] = tested on: SF-539 CNS
[3] = tested on: RPMI-8226 leukemia
[4] = tested on: HOP-62 NSCLC
[5] = tested on: OVCAR-3 ovarian
[6] = tested on: HCT-15 colon
[7] = tested on: PC-3 prostate
[8] = tested on: TK-10 renal
[9] = tested on: BT-549 breast
[10] = tested on: OVCAR-5 ovarian
[11] = tested on: UACC-257 melanoma
[12] = tested on: HCC-2998 colon
[13] = tested on: SK-OV-3 ovarian
[14] = tested on: SW-620 colon
[15] = tested on: SK-MEL-28 melanoma
[16] = tested on: NCI-H23 lung
[17] = tested on: MOLT-4 leukemia
[18] = tested on: RXF 393 renal
[19] = tested on: SNB-75 CNS
[20] = tested on: COLO 205 colon
[21] = tested on: LOX IMVI melanoma
[22] = tested on: DU-145 prostate
[23] = tested on: SN12C renal
[24] = tested on: SF-295 CNS
[25] = tested on: KM12 colon
[26] = tested on: U251 CNS
[27] = tested on: UO-31 renal
[28] = tested on: MALME-3M melanoma
[29] = tested on: HS 578T breast
[30] = tested on: NCI-H460 lung
[31] = tested on: OVCAR-4 ovarian
[32] = tested on: M14 melanoma
[33] = tested on: SK-MEL-5 melanoma
[34] = tested on: UACC-62 melanoma
[35] = tested on: MDA-MB-231 breast
[36] = tested on: T-47D breast
[37] = tested on: HL-60(TB) leukemia
[38] = tested on: SNB-19 CNS
[39] = tested on: A498 renal
[40] = tested on: ACHN renal
[41] = tested on: MCF7 breast
[42] = tested on: SK-MEL-2 melanoma
[43] = tested on: EKVX NSCLC
[44] = tested on: NCI-H522 lung
[45] = tested on: NCI/ADR-RES ovarian
[46] = tested on: IGROV1 ovarian
[47] = tested on: OVCAR-8 ovarian
[48] = tested on: HOP-92 NSCLC
[49] = tested on: HCT-116 colon
[50] = tested on: 786-0 renal
[51] = tested on: SF-268 CNS
[52] = tested on: A549 NSCLC
[53] = tested on: NCI-H226 lung
[54] = tested on: HT29 colon
[55] = tested on: MDA-MB-435

**Q.** Which GI50 [1] does the source give for `C=CCCCCC/C=C\[C@H](O)C#CC#C/C=C/CO` here?
**A.** The GI50 was 32.6 µM.

**Q.** And the TGI [1]?
**A.** The TGI was 86.6 µM.

**Q.** And the GI50 [2]?
**A.** The GI50 was 58.2 µM.

**Q.** And the TGI [2]?
**A.** The TGI was over 100 µM.

**Q.** What about the GI50 [3] of the same compound?
**A.** Its GI50 is 14 µM.

**Q.** And the TGI [3]?
**A.** Its TGI is 32.2 µM.

**Q.** And the GI50 [4]?
**A.** Its GI50 is over 100 µM.

**Q.** And the TGI [4]?
**A.** Its TGI is over 100 µM.

**Q.** And the GI50 [5]?
**A.** Its GI50 is 31.7 µM.

**Q.** And the TGI [5]?
**A.** Its TGI is 80.3 µM.

**Q.** And the GI50 [6]?
**A.** The GI50 was 30 µM.

**Q.** What about the TGI [6] of the same compound?
**A.** The TGI was over 100 µM.

**Q.** And the GI50 [7]?
**A.** The GI50 was 18.6 µM.

**Q.** What about the TGI [7] of the same compound?
**A.** The TGI was 36.1 µM.

**Q.** What about the GI50 [8] of the same compound?
**A.** Its GI50 is 28.8 µM.

**Q.** And the TGI [8]?
**A.** The TGI was over 100 µM.

**Q.** What about the GI50 [9] of the same compound?
**A.** Its GI50 is 20.1 µM.

**Q.** What about the TGI [9] of the same compound?
**A.** Its TGI is 54.7 µM.

**Q.** And the GI50 [10]?
**A.** The GI50 was 43.3 µM.

**Q.** What about the TGI [10] of the same compound?
**A.** The TGI was over 100 µM.

**Q.** And the GI50 [11]?
**A.** Its GI50 is 78.9 µM.

**Q.** And the TGI [11]?
**A.** The TGI was over 100 µM.

**Q.** And the GI50 [12]?
**A.** The GI50 was 12.5 µM.

**Q.** What about the TGI [12] of the same compound?
**A.** The TGI was 25.1 µM.

**Q.** And the GI50 [13]?
**A.** The GI50 was over 100 µM.

**Q.** And the TGI [13]?
**A.** Its TGI is over 100 µM.

**Q.** What about the GI50 [14] of the same compound?
**A.** Its GI50 is 27 µM.

**Q.** And the TGI [14]?
**A.** The TGI was 78.5 µM.

**Q.** What about the GI50 [15] of the same compound?
**A.** Its GI50 is over 100 µM.

**Q.** And the TGI [15]?
**A.** Its TGI is over 100 µM.

**Q.** What about the GI50 [16] of the same compound?
**A.** The GI50 was 22.6 µM.

**Q.** What about the TGI [16] of the same compound?
**A.** Its TGI is 50.9 µM.

**Q.** What about the GI50 [17] of the same compound?
**A.** The GI50 was 17.3 µM.

**Q.** What about the TGI [17] of the same compound?
**A.** Its TGI is 49.2 µM.

**Q.** What about the GI50 [18] of the same compound?
**A.** The GI50 was 34.5 µM.

**Q.** What about the TGI [18] of the same compound?
**A.** The TGI was over 100 µM.

**Q.** And the GI50 [19]?
**A.** Its GI50 is over 100 µM.

**Q.** And the TGI [19]?
**A.** The TGI was over 100 µM.

**Q.** And the GI50 [20]?
**A.** Its GI50 is 36.7 µM.

**Q.** What about the TGI [20] of the same compound?
**A.** The TGI was over 100 µM.

**Q.** What about the GI50 [21] of the same compound?
**A.** Its GI50 is 16.4 µM.

**Q.** What about the TGI [21] of the same compound?
**A.** The TGI was 29.9 µM.

**Q.** What about the GI50 [22] of the same compound?
**A.** Its GI50 is 66.3 µM.

**Q.** And the TGI [22]?
**A.** The TGI was over 100 µM.

**Q.** What about the GI50 [23] of the same compound?
**A.** The GI50 was 15 µM.

**Q.** What about the TGI [23] of the same compound?
**A.** Its TGI is 35.1 µM.

**Q.** And the GI50 [24]?
**A.** Its GI50 is 60.3 µM.

**Q.** What about the TGI [24] of the same compound?
**A.** The TGI was over 100 µM.

**Q.** And the GI50 [25]?
**A.** Its GI50 is 18.3 µM.

**Q.** And the TGI [25]?
**A.** Its TGI is 33.7 µM.

**Q.** And the GI50 [26]?
**A.** The GI50 was 24.5 µM.

**Q.** And the TGI [26]?
**A.** The TGI was 77.3 µM.

**Q.** What about the GI50 [27] of the same compound?
**A.** Its GI50 is 61.9 µM.

**Q.** And the TGI [27]?
**A.** Its TGI is over 100 µM.

**Q.** What about the GI50 [28] of the same compound?
**A.** Its GI50 is 54 µM.

**Q.** And the TGI [28]?
**A.** The TGI was over 100 µM.

**Q.** And the GI50 [29]?
**A.** Its GI50 is 45.4 µM.

**Q.** What about the TGI [29] of the same compound?
**A.** Its TGI is over 100 µM.

**Q.** What about the GI50 [30] of the same compound?
**A.** Its GI50 is over 100 µM.

**Q.** And the TGI [30]?
**A.** The TGI was over 100 µM.

**Q.** And the GI50 [31]?
**A.** Its GI50 is 90.8 µM.

**Q.** What about the TGI [31] of the same compound?
**A.** The TGI was over 100 µM.

**Q.** What about the GI50 [32] of the same compound?
**A.** The GI50 was 86.2 µM.

**Q.** And the TGI [32]?
**A.** Its TGI is over 100 µM.

**Q.** And the GI50 [33]?
**A.** The GI50 was 38.5 µM.

**Q.** What about the TGI [33] of the same compound?
**A.** Its TGI is over 100 µM.

**Q.** What about the GI50 [34] of the same compound?
**A.** Its GI50 is 26.2 µM.

**Q.** What about the TGI [34] of the same compound?
**A.** Its TGI is over 100 µM.

**Q.** What about the GI50 [35] of the same compound?
**A.** Its GI50 is 14.5 µM.

**Q.** What about the TGI [35] of the same compound?
**A.** The TGI was 33.8 µM.

**Q.** What about the GI50 [36] of the same compound?
**A.** Its GI50 is 98.4 µM.

**Q.** What about the TGI [36] of the same compound?
**A.** Its TGI is over 100 µM.

**Q.** What about the GI50 [37] of the same compound?
**A.** The GI50 was 3.64 µM.

**Q.** And the TGI [37]?
**A.** Its TGI is 24.1 µM.

**Q.** And the GI50 [38]?
**A.** Its GI50 is over 100 µM.

**Q.** What about the TGI [38] of the same compound?
**A.** Its TGI is over 100 µM.

**Q.** What about the GI50 [39] of the same compound?
**A.** The GI50 was 20.3 µM.

**Q.** What about the TGI [39] of the same compound?
**A.** The TGI was 51.9 µM.

**Q.** And the GI50 [40]?
**A.** The GI50 was over 100 µM.

**Q.** And the TGI [40]?
**A.** Its TGI is over 100 µM.

**Q.** And the GI50 [41]?
**A.** The GI50 was 38.5 µM.

**Q.** What about the TGI [41] of the same compound?
**A.** The TGI was over 100 µM.

**Q.** What about the GI50 [42] of the same compound?
**A.** The GI50 was 83.3 µM.

**Q.** And the TGI [42]?
**A.** The TGI was over 100 µM.

**Q.** And the GI50 [43]?
**A.** The GI50 was 52.7 µM.

**Q.** And the TGI [43]?
**A.** The TGI was over 100 µM.

**Q.** What about the GI50 [44] of the same compound?
**A.** The GI50 was 19.3 µM.

**Q.** And the TGI [44]?
**A.** Its TGI is 45.4 µM.

**Q.** What about the GI50 [45] of the same compound?
**A.** Its GI50 is 23.5 µM.

**Q.** What about the TGI [45] of the same compound?
**A.** The TGI was 57.3 µM.

**Q.** And the GI50 [46]?
**A.** Its GI50 is 19.4 µM.

**Q.** What about the TGI [46] of the same compound?
**A.** The TGI was 53.7 µM.

**Q.** What about the GI50 [47] of the same compound?
**A.** Its GI50 is 20.2 µM.

**Q.** What about the TGI [47] of the same compound?
**A.** Its TGI is 52 µM.

**Q.** What about the GI50 [48] of the same compound?
**A.** Its GI50 is 52.8 µM.

**Q.** And the TGI [48]?
**A.** Its TGI is over 100 µM.

**Q.** What about the GI50 [49] of the same compound?
**A.** The GI50 was 22.6 µM.

**Q.** What about the TGI [49] of the same compound?
**A.** The TGI was 48.6 µM.

**Q.** What about the GI50 [50] of the same compound?
**A.** The GI50 was 29.3 µM.

**Q.** And the TGI [50]?
**A.** The TGI was 82.2 µM.

**Q.** What about the GI50 [51] of the same compound?
**A.** The GI50 was 24.5 µM.

**Q.** What about the TGI [51] of the same compound?
**A.** Its TGI is 70.5 µM.

**Q.** What about the GI50 [52] of the same compound?
**A.** Its GI50 is 21.2 µM.

**Q.** What about the TGI [52] of the same compound?
**A.** The TGI was 45.4 µM.

**Q.** And the GI50 [53]?
**A.** The GI50 was 15.2 µM.

**Q.** What about the TGI [53] of the same compound?
**A.** The TGI was 31 µM.

**Q.** And the GI50 [54]?
**A.** Its GI50 is over 100 µM.

**Q.** And the TGI [54]?
**A.** The TGI was over 100 µM.

**Q.** What about the GI50 [55] of the same compound?
**A.** Its GI50 is 39.8 µM.

**Q.** What about the TGI [55] of the same compound?
**A.** The TGI was over 100 µM.

Reference: PubChem BioAssay (NCI)
